Here are results for 38 compounds from patent publication US8829007B2 (priority 2009, dated 2014).

For one experiment, the system named is influenza A virus (A/PR/8/34). The experiment can be described thus: microbe, parasite or virus in culture. It counts as cell-based. The following applies: Influenza A virus, PR/8, MDCK, MDCK cells infected with A/PR/8/34, cell protection (CPE); read-out: IC50 (mean all).
`OC1CCCCC1Nc1nc(-c2c[nH]c3ncc(Cl)cc23)ncc1F` (centres unmarked) [Compound 13, 2-(2-(5-chloro-1H-pyrrolo[2,3-b]pyridin-3-yl)-5-fluoropyrimidin-4-ylamino)cyclohexanol]: the 50% inhibitory concentration (IC50) was < 5 µM.

As to `Cc1cnc(-c2c[nH]c3ncc(Cl)cc23)nc1NC1CCCCC1N` (centres unmarked) [Compound 116, N1-(2-(5-chloro-1H-pyrrolo[2,3-b]pyridin-3-yl)-5-methylpyrimidin-4-yl)cyclohexane-1,2-diamine], the IC50 is > 20 µM.

Take `CCOC(=O)CCNC(=O)N1CCC[C@H](CNc2nc(-c3c[nH]c4ncc(Cl)cc34)ncc2F)C1` [Compound 118, (R)-ethyl 3-(3-((2-(5-chloro-1H-pyrrolo[2,3-b]pyridin-3-yl)-5-fluoropyrimidin-4-ylamino)methyl)piperidine-1-carboxamido)propanoate]: the concentration for half-maximal inhibition (IC50) is 5 to 20 µM.

With `CCNC(=O)N1CCC[C@H](CNc2nc(-c3c[nH]c4ncccc34)ncc2F)C1` [Compound 275, (R)—N-ethyl-3-((5-fluoro-2-(1H-pyrrolo[2,3-b]pyridin-3-yl)pyrimidin-4-ylamino)methyl)piperidine-1-carboxamide], the IC50 lay in the range of 5 to 20 µM.

Consider `COc1ccccc1C(=O)N1CCCC[C@@H]1CNc1nc(-c2c[nH]c3ncc(Cl)cc23)ncc1F` [Compound 190, (R)-(2-((2-(5-chloro-1H-pyrrolo[2,3-b]pyridin-3-yl)-5-fluoropyrimidin-4-ylamino)methyl)piperidin-1-yl)(2-methoxyphenyl)methanone], for which the half-maximal inhibitory concentration (IC50) was 5 to 20 µM.

On to `Cc1cccc(CN2CCC[C@@H](CNc3nc(-c4c[nH]c5ncc(Cl)cc45)ncc3F)C2)c1` [Compound 137, (S)-2-(5-chloro-1H-pyrrolo[2,3-b]pyridin-3-yl)-5-fluoro-N-((1-(3-methylbenzyl)piperidin-3-yl)methyl)pyrimidin-4-amine], for which the half-inhibitory concentration (IC50) is > 20 µM.

For the compound `COC(CN1CCC[C@@H](CNc2nc(-c3c[nH]c4ncc(Cl)cc34)ncc2F)C1)OC` [Compound 132, (S)-2-(5-chloro-1H-pyrrolo[2,3-b]pyridin-3-yl)-N-((1-(2,2-dimethoxyethyl)piperidin-3-yl)methyl)-5-fluoropyrimidin-4-amine], the IC50 is > 20 µM.

On to `O=C(c1ccccc1)N1CCC[C@H](CNc2nc(-c3c[nH]c4ncccc34)ncc2F)C1` [Compound 271, (R)-(3-((5-fluoro-2-(1H-pyrrolo[2,3-b]pyridin-3-yl)pyrimidin-4-ylamino)methyl)piperidin-1-yl)(phenyl)methanone], for which the IC50 fell in the range of 5 to 20 µM.

Turning to `OC1CCCC[C@@H]1CNc1nc(-c2c[nH]c3ncc(Cl)cc23)ncc1F` (stereo partly drawn) [Compound 12, (2R)-2-((2-(5-chloro-1H-pyrrolo[2,3-b]pyridin-3-yl)-5-fluoropyrimidin-4-ylamino)methyl)cyclohexanol], the concentration for half-maximal inhibition (IC50) is > 20 µM.

`CC(C)(C)OC(=O)N1CCC[C@H](CNc2nc(-c3c[nH]c4ncc(N)cc34)ncc2F)C1` [Compound 114, (R)-tert-butyl 3-((2-(5-amino-1H-pyrrolo[2,3-b]pyridin-3-yl)-5-fluoropyrimidin-4-ylamino)methyl)piperidine-1-carboxylate]: the 50% inhibitory concentration (IC50) was > 20 µM.

As to `CNC(=O)N1CCC[C@H](CNc2nc(-c3c[nH]c4ncccc34)ncc2F)C1` [Compound 274], the IC50 was 5 to 20 µM.

As for `CN(C)CC(=O)N1CCC[C@@H](CNc2nc(-c3c[nH]c4ncc(Cl)cc34)ncc2F)C1` [Compound 46, (S)-1-(3-((2-(5-chloro-1H-pyrrolo[2,3-b]pyridin-3-yl)-5-fluoropyrimidin-4-ylamino)methyl)piperidin-1-yl)-2-(dimethylamino)ethanone], the IC50 was > 20 µM.

The same experiment, now with this note: Influenza A virus, PR/8, MDCK, MDCK cells infected with A/PR/8/34; survival of infected cells; class symbols; read-out: IC50 (mean all).
`CCC(=O)N1CCOCC1CNc1nc(-c2c[nH]c3ncc(Cl)cc23)ncc1F` (centres unmarked) [Compound 516, 1-(3-((2-(5-chloro-1H-pyrrolo[2,3-b]pyridin-3-yl)-5-fluoropyrimidin-4-ylamino)methyl)morpholino)propan-1-one]: the 50% inhibitory concentration (IC50) lay in the range of 5 to 20 µM.

Consider `COCC(=O)N1CCC[C@H](CNc2ccnc(-c3c[nH]c4ncc(Cl)cc34)n2)C1` [Compound 491, (R)-1-(3-((2-(5-chloro-1H-pyrrolo[2,3-b]pyridin-3-yl)pyrimidin-4-ylamino)methyl)piperidin-1-yl)-2-methoxyethanone], for which the concentration for half-maximal inhibition (IC50) was < 5 µM.

With `COC(=O)N1CCCC(Nc2nc(-c3c[nH]c4ncc(Cl)cc34)ncc2F)CC1` (centres unmarked) [Compound 498, methyl 4-(2-(5-chloro-1H-pyrrolo[2,3-b]pyridin-3-yl)-5-fluoropyrimidin-4-ylamino)azepane-1-carboxylate], the IC50 is < 5 µM.

As to `CCCNC(=O)N1CCOCC1CNc1nc(-c2c[nH]c3ncc(Cl)cc23)ncc1F` (centres unmarked) [Compound 517, 3-((2-(5-chloro-1H-pyrrolo[2,3-b]pyridin-3-yl)-5-fluoropyrimidin-4-ylamino)methyl)-N-propylmorpholine-4-carboxamide], the 50% inhibitory concentration (IC50) was 5 to 20 µM.

Still in this experiment, the particulars now being: Influenza A virus, PR/8, MDCK, mean all; A/PR/8/34 infected MDCK cells, CPE assay; read-out: IC50.
`O=C(N[C@@H]1CCCC[C@H]1Nc1nc(-c2c[nH]c3ncc(Cl)cc23)ncc1F)c1ccccc1` [Compound 352, N-[(1R,2R)-2-[[2-(5-chloro-1H-pyrrolo[2,3-b]pyridin-3-yl)-5-fluoro-pyrimidin-4-yl]amino]cyclohexyl]benzamide]: the IC50 is > 20 µM.

In the case of `Fc1cnc(-c2c[nH]c3ncc(Cl)cc23)nc1N[C@H]1CCN(CC2CC2)C1` [Compound 415, (S)-2-(5-chloro-1H-pyrrolo[2,3-b]pyridin-3-yl)-N-(1-(cyclopropylmethyl)pyrrolidin-3-yl)-5-fluoropyrimidin-4-amine], the IC50 is > 20 µM.

As for `CCC(=O)N1CCOC(CNc2nc(-c3c[nH]c4ncc(Cl)cc34)ncc2F)C1` (centres unmarked) [Compound 449, 1-(2-((2-(5-chloro-1H-pyrrolo[2,3-b]pyridin-3-yl)-5-fluoropyrimidin-4-ylamino)methyl)morpholino)propan-1-one], the 50% inhibitory concentration (IC50) was 5 to 20 µM.

`COC(=O)N1CC[C@H](Nc2nc(-c3c[nH]c4ncc(Cl)cc34)ncc2F)C1` [Compound 476]: the IC50 fell in the range of 5 to 20 µM.

Consider `CCOC(=O)N1CCC[C@H](Nc2nc(-c3c[nH]c4ncc(Cl)cc34)ncc2F)C1` [Compound 441], for which the IC50 fell in the range of 5 to 20 µM.

Consider `CC(=O)N[C@@H]1CCCC[C@H]1Nc1nc(-c2c[nH]c3ncccc23)ncc1F` [Compound 348, N-[(1R,2R)-2-[[5-fluoro-2-(1H-pyrrolo[2,3-b]pyridin-3-yl)pyrimidin-4-yl]amino]cyclohexyl]acetamide], for which the IC50 is > 20 µM.

With `O=C(N[C@@H]1CCCC[C@H]1Nc1nc(-c2c[nH]c3ncc(Cl)cc23)ncc1F)c1ccccc1` (relative stereo) [Compound 365, N-[trans-2-[[2-(5-chloro-1H-pyrrolo[2,3-b]pyridin-3-yl)-5-fluoro-pyrimidin-4-yl]amino]cyclohexyl]benzamide], the IC50 is > 20 µM.

In the case of `CC(C)OC(=O)N1CC[C@H](Nc2nc(-c3c[nH]c4ncc(Cl)cc34)ncc2F)C1` [Compound 477], the concentration for half-maximal inhibition (IC50) was > 20 µM.

Turning to `CCCNC(=O)N[C@@H]1CCCC[C@@H]1Nc1nc(-c2c[nH]c3ncccc23)ncc1F` (relative stereo) [Compound 347, 1-[cis-2-[[5-fluoro-2-(1H-pyrrolo[2,3-b]pyridin-3-yl)pyrimidin-4-yl]amino]cyclohexyl]-3-propyl-urea], the IC50 is > 20 µM.

For `CNC(=O)N[C@@H]1CCCC[C@@H]1Nc1nc(-c2c[nH]c3ncc(Cl)cc23)ncc1F` (relative stereo) [Compound 430, 1-[cis-2-[[2-(5-chloro-1H-pyrrolo[2,3-b]pyridin-3-yl)-5-fluoro-pyrimidin-4-yl]amino]cyclohexyl]-3-methyl-urea], the IC50 is < 5 µM.

In the case of `CN(C)C(=O)N[C@H]1CCCC[C@@H]1Nc1nc(-c2c[nH]c3ncc(Cl)cc23)ncc1F` [Compound 427, 3-[(1S,2S)-2-[[2-(5-chloro-1H-pyrrolo[2,3-b]pyridin-3-yl)-5-fluoro-pyrimidin-4-yl]amino]cyclohexyl]-1,1-dimethyl-urea], the concentration for half-maximal inhibition (IC50) was > 20 µM.

On to `CCCC(=O)N[C@@H]1CCCC[C@H]1Nc1nc(-c2c[nH]c3ncc(Cl)cc23)ncc1F` [Compound 369, N-[(1R,2R)-2-[[2-(5-chloro-1H-pyrrolo[2,3-b]pyridin-3-yl)-5-fluoro-pyrimidin-4-yl]amino]cyclohexyl]butanamide], for which the IC50 was > 20 µM.

As for `CC1(C(=O)N2CCC[C@H](Nc3nc(-c4c[nH]c5ncc(Cl)cc45)ncc3F)C2)CC1` [Compound 445], the half-inhibitory concentration (IC50) was < 5 µM.

Still in this experiment, the particulars now being: Influenza A virus, PR/8, MDCK; read-out: IC50 (mean all).
With `Cc1ccc(OC(=O)N2CCC[C@H](CNc3nc(-c4c[nH]c5ncc(Cl)cc45)ncc3F)C2)cc1` [Compound 71, (R)-p-tolyl 3-((2-(5-chloro-1H-pyrrolo[2,3-b]pyridin-3-yl)-5-fluoropyrimidin-4-ylamino)methyl)piperidine-1-carboxylate], the half-maximal inhibitory concentration (IC50) was in the range of 5 to 20 µM.

The same experiment, now with this note: mean all; A/PR/8/34 infected MDCK cells, CPE assay; read-out: IC50.
Turning to `O=C1NCCC1Nc1nc(-c2c[nH]c3ncccc23)ncc1F` (centres unmarked) [Compound 377], the IC50 was > 20 µM.

Take `CCCCS(=O)(=O)N1CCC(Nc2nc(-c3c[nH]c4ncc(Cl)cc34)ncc2F)C1` (centres unmarked) [Compound 406]: the IC50 was > 20 µM.

On to `CC(C)S(=O)(=O)N1CCCC(Nc2ccnc(-c3c[nH]c4ncc(Cl)cc34)n2)C1` (centres unmarked) [Compound 465], for which the IC50 lay within 5 to 20 µM.

For `O=C1CCC(CNc2nc(-c3c[nH]c4ncc(Cl)cc34)ncc2F)CN1` (centres unmarked) [Compound 378], the IC50 was > 20 µM.

For the compound `O=C(OC1CCOC1)N1CCC(Nc2nc(-c3c[nH]c4ncc(Cl)cc34)ncc2F)CC1` (centres unmarked) [Compound 420], the half-maximal inhibitory concentration (IC50) was > 20 µM.

As to `O=C(OC1CCOC1)N1CCC(Nc2nc(-c3c[nH]c4ncc(Cl)cc34)ncc2F)C1` (centres unmarked) [Compound 421], the half-maximal inhibitory concentration (IC50) was 5 to 20 µM.

Still in this experiment, the particulars now being: read-out: IC50.
Regarding “1-[trans-2-[[2-(5-chloro-1H-pyrrolo[2,3-b]pyridin-3-yl)-5-fluoro-pyrimidin-4-yl]amino]cyclohexyl]-3-propyl-urea [Compound 350]”, the half-inhibitory concentration (IC50) was 5 to 20 µM.

As to `COP(=O)(OC)[C@@]1(O)CCC[C@H](Nc2nc(-c3c[nH]c4ncc(Cl)cc34)ncc2F)C1` [Compound 741], the IC50 is < 5 µM.
